This note sets out measurements from ChEMBL document CHEMBL4699484, “Discovery of small molecule FLT3 inhibitors that are able to overcome drug-resistant mutations” (Bioorg Med Chem Lett, 2020).

The target of assay [1] is T1, Receptor-type tyrosine-protein kinase FLT3 (Homo sapiens, UniProt P36888, ITD). It is filed as cell-based, BaF3.
Description: Inhibition of FLT3 ITD mutant (unknown origin) expressed in mouse BaF3 cells
For assay [2], the target named is Receptor-type tyrosine-protein kinase FLT3 (Homo sapiens, UniProt P36888, F691L/ITD). It counts as cell-based, BaF3.
Description: Inhibition of FLT3 ITD/F691L double mutant (unknown origin) expressed in mouse BaF3 cells
Assay [3] addresses Receptor-type tyrosine-protein kinase FLT3 (Homo sapiens, UniProt P36888, D835Y/ITD). It counts as cell-based, BaF3.
Description: Inhibition of FLT3 ITD/D835Y double mutant (unknown origin) expressed in mouse BaF3 cells
The next assay concerns BaF3. Nature of the assay: cells. Conditions: Mus musculus.
Assay [4] addresses T1, Receptor-type tyrosine-protein kinase FLT3. The assay is described as follows: Inhibition of human partial length FLT3 ITD mutant expressed in bacterial expression system by Kinomescan method.
The next assay relates to STF3A. The assay is described as follows: (§1) Inhibition of Wnt/beta-Catenin signaling (unknown origin) expressed in STF3a cells incubated for 24 hrs by STF luciferase reporter gene assay. Conditions: Homo sapiens. It is filed as cell-based. A general note: Reporter assays use an easily measured gene product as a stand-in for the process of interest.
Assay [5] is described as follows: as §1. It counts as cell-based. Conditions: Homo sapiens.

Description for BaF3: Cytotoxicity against mouse BaF3 cells assessed as reduction in cell viability

Turning to `COCCOc1cc2nccc(Oc3ccc(NC(=O)Nc4cc(C(C)(C)C)on4)cc3F)c2cc1OC`, the concentration for half-maximal inhibition (IC50) (in general, the concentration needed to halve the response being measured) in assay [1] came out at 4.73 nM; in assay [2], 11.9 nM; in assay [3] it was 5.35 nM; in the assay with BaF3, 1130 nM.

Consider `COc1cc2ncnc(Oc3ccc(NC(=O)Nc4cc(C(C)(C)C)on4)cc3F)c2cc1OC`, for which the IC50 was 1.51 nM in assay [1], 13.8 nM in assay [2], 7.93 nM in assay [3] and over 1990 nM with BaF3.

With `COc1cc2c(Oc3ccc(NC(=O)Nc4cc(C(C)(C)C)on4)cc3F)ccnc2cc1OCCCN1CCOCC1`, the IC50 in assay [1] is 3.22 nM; in assay [2], 9.93 nM; in assay [3], 5.09 nM; with BaF3, 1100 nM.

Take `CCCOc1cc2c(Oc3ccc(NC(=O)Nc4cc(C(C)(C)C)on4)cc3F)ccnc2cc1OC`: the IC50 in assay [1] is 76.1 nM; in assay [2], 296 nM; in assay [3], 160 nM; with BaF3 it was 7770 nM.

`CC(C)(C)c1cc(NC(=O)Nc2ccc(Oc3ccnc4cc(OCC5CCCC5)c(OCC5CCCC5)cc34)c(F)c2)no1`: the half-maximal inhibitory concentration (IC50) amounted to 37.2 nM in assay [1], 38.9 nM in assay [2], 27.9 nM in assay [3] and 6500 nM in the assay with BaF3.

On to `COCCOc1cc2c(Oc3ccc(NC(=O)Nc4cc(C(C)(C)C)on4)cc3F)ccnc2cc1OC`, for which the IC50 was 4.91 nM in assay [1], 20.8 nM in assay [2], 10.1 nM in assay [3] and 3000 nM in the assay with BaF3.

On to `COc1cc2c(Oc3ccc(NC(=O)Nc4cc(C(C)(C)C)on4)cc3F)ccnc2cc1OCC1CCCC1`, for which the IC50 in assay [1] stood at 66.5 nM; in assay [2], 189 nM; in assay [3], 104 nM; in the assay with BaF3, 5560 nM.

As to `COc1cc2nccc(Oc3ccc(NC(=O)Nc4cc(C(C)(C)C)on4)cc3F)c2cc1OCCCN1CCOCC1`, the IC50 in assay [1] came to 5.77 nM; in assay [2], 16.8 nM; in assay [3], 6.28 nM; in the assay on BaF3 it was 1840 nM.

Regarding `COCCOc1cc2nccc(Oc3ccc(NC(=O)Nc4cc(C(C)(C)C)on4)cc3F)c2cc1OCCOC`, the half-maximal inhibitory concentration (IC50) in assay [1] was 5.17 nM; in assay [2], 16 nM; in assay [3], 11 nM; with BaF3 it was 2000 nM.

On to `COc1cc2c(Oc3ccc(NC(=O)Nc4cc(C(C)(C)C)on4)cc3F)ncnc2cn1`, for which the half-maximal inhibitory concentration (IC50) in assay [1] was 1.2 nM; in assay [2] it was 1020 nM; in assay [3] it was 64.2 nM; with BaF3, 3040 nM.

For `CC(C)(C)c1cc(NC(=O)Nc2ccc(Oc3ccnc4[nH]ccc34)c(F)c2)no1`, the half-maximal inhibitory concentration (IC50) was 141 nM in assay [1], 1020 nM in assay [2], 741 nM in assay [3] and over 10000 nM in the assay with BaF3.

Turning to `COc1cc2nccc(Oc3ccc(NC(=O)Nc4cc(C(C)(C)C)on4)cc3F)c2cc1OC(C)C`, the IC50 was found to be 6.88 nM in assay [1], 23.1 nM in assay [2], 10.6 nM in assay [3] and 2030 nM with BaF3.

For the molecule `CCOc1cc2c(Oc3ccc(NC(=O)Nc4cc(C(C)(C)C)on4)cc3F)ccnc2cc1OC`, the IC50 in assay [1] was determined as 7.25 nM; in assay [2] it was 29.9 nM; in assay [3] it was 10.9 nM; in the assay on BaF3, 2880 nM.

As to `CC(C)(C)c1cc(NC(=O)Nc2ccc(Oc3ccnc4nc[nH]c34)c(F)c2)no1`, the 50% inhibitory concentration (IC50) worked out at 0.015 nM in assay [1], 18.6 nM in assay [2], 12.4 nM in assay [3] and 2080 nM in the assay on BaF3.

For the molecule `CC(C)(C)c1cc(NC(=O)Nc2ccc(Oc3nccc4ccccc34)c(F)c2)no1`, the IC50 in assay [1] was 1260 nM; in assay [2], over 10000 nM; in assay [3] it was over 10000 nM; in the assay with BaF3, over 10000 nM.

Take `CC(C)(C)c1cc(NC(=O)Nc2ccc(Oc3ccnc4[nH]ncc34)c(F)c2)no1`: the IC50 stood at 0.292 nM in assay [1], 35 nM in assay [2], 34.3 nM in assay [3] and 2620 nM in the assay with BaF3.

For `CC(C)(C)c1cc(NC(=O)Nc2ccc(Oc3ncnc4[nH]ncc34)c(F)c2)no1`, the IC50 in assay [4] is 1.3 nM; in assay [1] it was 0.038 nM; in assay [2], 108 nM; in assay [3] it was 130 nM; with BaF3, 3160 nM.

For `CCOc1cc2nccc(Oc3ccc(NC(=O)Nc4cc(C(C)(C)C)on4)cc3F)c2cc1OC`, the IC50 stood at 5.2 nM in assay [1], 8.31 nM in assay [2], 5.96 nM in assay [3] and 1650 nM with BaF3.

With `CCOc1cc2nccc(Oc3ccc(NC(=O)Nc4cc(C(C)(C)C)on4)cc3F)c2cc1OCC`, the IC50 was 3.08 nM in assay [1], 32.6 nM in assay [2], 15.5 nM in assay [3] and 3140 nM in the assay on BaF3.

For the molecule `COc1cc2c(Oc3ccc(NC(=O)Nc4cc(C(C)(C)C)on4)cc3F)ccnc2cc1OCC(C)C`, the IC50 in assay [1] was 36.5 nM; in assay [2] it was 127 nM; in assay [3], 62.4 nM; in the assay on BaF3, 4820 nM.

As for `COc1cc2c(Oc3ccc(NC(=O)Nc4cc(C(C)(C)C)on4)cc3F)ccnc2cc1OCC1CO1` (stereo not given), the IC50 came out at 2650 nM in assay [1], 5270 nM in assay [2], 3540 nM in assay [3] and 9200 nM in the assay with BaF3.

Consider `COc1cc2nccc(Oc3ccc(NC(=O)Nc4cc(C(C)(C)C)on4)cc3F)c2cc1OC`, for which the inhibition entry in the assay on STF3A is “Dose-dependent effect”. For the same molecule, the IC50 in assay [5] is under 500 nM; in assay [1] it was 0.072 nM; in assay [2] it was 5.86 nM; in assay [3], 3.48 nM; with BaF3, 1210 nM.

As for `CCCOc1cc2nccc(Oc3ccc(NC(=O)Nc4cc(C(C)(C)C)on4)cc3F)c2cc1OC`, the IC50 in assay [1] turned out to be 19.2 nM; in assay [2] it was 54.3 nM; in assay [3] it was 14.9 nM; in the assay with BaF3, 4940 nM.
